Assay results published in ChEMBL document CHEMBL5252638, “Novel triphenylphosphonium amphiphilic conjugates of glycerolipid type: synthesis, cytotoxic and antibacterial activity, and targeted cancer cell delivery” (RSC Med Chem, 2023).

Tests used:
[1] = Cytotoxicity against human WI-38 cells assessed as number of viable cells measured after 48 hrs by MTT based colorimetric assay; type: toxicity, cell-based
A549 = experiment: Cytotoxicity against human A549 cells assessed as number of viable cells measured after 48 hrs by MTT based colorimetric assay; type: functional, cell-based; conditions: A549, 48 h
SK-OV-3 = experiment: Cytotoxicity against human SK-OV-3 cells assessed as number of viable cells measured after 48 hrs by MTT based colorimetric assay; type: functional, cell-based; conditions: SK-OV-3, 48 h
[2] = Cytotoxicity against human Chang liver cells assessed as number of viable cells measured after 48 hrs by MTT based colorimetric assay; type: toxicity, cell-based
M-HeLa = experiment: Cytotoxicity against human HelaM cells assessed as number of viable cells measured after 48 hrs by MTT based colorimetric assay; type: functional, cell-based
PC-3 = experiment: Cytotoxicity against human PC-3 cells assessed as number of viable cells measured after 48 hrs by MTT based colorimetric assay; type: functional, cell-based; conditions: PC-3, 48 h
PANC-1 = experiment: Cytotoxicity against human PANC-1 cells assessed as number of viable cells measured after 48 hrs by MTT based colorimetric assay; type: functional, cell-based; conditions: PANC-1, 48 h
HuTu80 [3] = experiment: Cytotoxicity against human HuTu80 cells assessed as number of viable cells measured after 48 hrs by MTT based colorimetric assay; type: functional, cell-based; conditions: HuTu80, 48 h
HuTu80 [4] = experiment: Induction of apoptosis in human HuTu80 cells assessed as late apoptotic cells at 10 uM incubated for 48 hrs by annexin V FITC/propidium iodide staining based flow cytometry analysis (reference value: 0.00%); type: functional
HuTu80 [5] = experiment: Induction of mitochondrial membrane potential loss in human HuTu80 cells assessed as J-monomer green fluorescence intensity at 10 uM incubated for 24 hrs by JC10 staining based flow cytometry method (reference value: 5.7%); type: functional
Homo sapiens [6] = species: Homo sapiens; experiment: Selectivity index, ratio of IC50 for human Chang liver cells to IC50 for human DU-145 cells
HuTu80 [7] = experiment: Induction of apoptosis in human HuTu80 cells assessed as viable cells at 10 uM incubated for 48 hrs by annexin V FITC/propidium iodide staining based flow cytometry analysis (reference value: 93.71%); type: functional; conditions: read-out: Activity
HepG2 = experiment: Cytotoxicity against human HepG2 cells assessed as number of viable cells measured after 48 hrs by MTT based colorimetric assay; type: functional, cell-based; conditions: HepG2, 48 h
HuTu80 [8] = experiment: Induction of apoptosis in human HuTu80 cells assessed as viable cells at 5 uM incubated for 48 hrs by annexin V FITC/propidium iodide staining based flow cytometry analysis (reference value: 93.71%); type: functional; conditions: read-out: Activity
HuTu80 [9] = experiment: Induction of cell cycle arrest in human HuTu80 cells assessed as accumulation of cell at S phase at 5 uM measured after 48 hrs by propidium iodide staining based analysis (reference value: 8.1%); type: functional
HuTu80 [10] = experiment: Induction of apoptosis in human HuTu80 cells assessed as early apoptotic cells at 10 uM incubated for 48 hrs by annexin V FITC/propidium iodide staining based flow cytometry analysis (reference value: 1.74%); type: functional
HuTu80 [11] = experiment: Induction of apoptosis in human HuTu80 cells assessed as necrotic cells at 10 uM incubated for 48 hrs by annexin V FITC/propidium iodide staining based flow cytometry analysis (reference value: 4.56%); type: functional
Staphylococcus aureus [12] = experiment: Antimicrobial activity against Staphylococcus aureus ATCC 6538 P FDA 209P by serial microdilution method; type: functional
Homo sapiens [13] = species: Homo sapiens; experiment: Selectivity index, ratio of IC50 for human Chang liver cells to IC50 for human MCF7 cells
T98G = experiment: Cytotoxicity against human T98G cells assessed as number of viable cells measured after 48 hrs by MTT based colorimetric assay; type: functional, cell-based
HuTu80 [14] = experiment: Induction of cell cycle arrest in human HuTu80 cells assessed as accumulation of cell at G2/M phase at 5 uM measured after 48 hrs by propidium iodide staining based analysis (reference value: 18.7%); type: functional
Homo sapiens [15] = species: Homo sapiens; experiment: Selectivity index, ratio of IC50 for human Chang liver cells to IC50 for human HuTu80 cells
HuTu80 [16] = experiment: Induction of ROS production in human HuTu80 cells assessed as increase in fluorescence intensity at 10 uM measured after 48 hrs by flow cytometry based analysis (reference value: 380); type: functional
HuTu80 [17] = experiment: Induction of cell cycle arrest in human HuTu80 cells assessed as accumulation of cell at G2/M phase at 10 uM measured after 48 hrs by propidium iodide staining based analysis (reference value: 18.7%); type: functional
HuTu80 [18] = experiment: Induction of apoptosis in human HuTu80 cells assessed as necrotic cells at 5 uM incubated for 48 hrs by annexin V FITC/propidium iodide staining based flow cytometry analysis (reference value: 4.56%); type: functional
Enterococcus faecalis [19] = experiment: Antimicrobial activity against Enterococcus faecalis ATCC 29212 by serial microdilution method; type: functional
Homo sapiens [20] = species: Homo sapiens; experiment: Selectivity index, ratio of IC50 for human Chang liver cells to IC50 for human SK-OV-3 cells
HuTu80 [21] = experiment: Induction of cell cycle arrest in human HuTu80 cells assessed as accumulation of cell at G1/G0 phase at 10 uM measured after 48 hrs by propidium iodide staining based analysis (reference value: 72%); type: functional
HuTu80 [22] = experiment: Induction of mitochondrial membrane potential loss in human HuTu80 cells assessed as J-aggregates red fluorescence intensity at 5 uM incubated for 24 hrs by JC10 staining based flow cytometry method (reference value: 94.4%); type: functional
DU-145 = experiment: Cytotoxicity against human DU-145 cells assessed as number of viable cells measured after 48 hrs by MTT based colorimetric assay; type: functional, cell-based; conditions: DU-145, 48 h
HuTu80 [23] = experiment: Induction of mitochondrial membrane potential loss in human HuTu80 cells assessed as J-aggregates red fluorescence intensity at 10 uM incubated for 24 hrs by JC10 staining based flow cytometry method (reference value: 94.4%); type: functional
HuTu80 [24] = experiment: Induction of apoptosis in human HuTu80 cells assessed as early apoptotic cells at 5 uM incubated for 48 hrs by annexin V FITC/propidium iodide staining based flow cytometry analysis (reference value: 1.74%); type: functional
HuTu80 [25] = experiment: Induction of mitochondrial membrane potential loss in human HuTu80 cells assessed as J-monomer green fluorescence intensity at 5 uM incubated for 24 hrs by JC10 staining based flow cytometry method (reference value: 5.7%); type: functional
HuTu80 [26] = experiment: Induction of ROS production in human HuTu80 cells assessed as increase in fluorescence intensity at 5 uM measured after 48 hrs by flow cytometry based analysis (reference value: 380); type: functional
Enterococcus faecalis [27] = experiment: Bactericidal activity against Enterococcus faecalis ATCC 29212 by serial microdilution method; type: functional
HuTu80 [28] = experiment: Induction of cell cycle arrest in human HuTu80 cells assessed as accumulation of cell at S phase at 10 uM measured after 48 hrs by propidium iodide staining based analysis (reference value: 8.1%); type: functional
Homo sapiens [29] = species: Homo sapiens; experiment: Selectivity index, ratio of IC50 for human Chang liver cells to IC50 for human HelaM cells
Staphylococcus aureus [30] = experiment: Bactericidal against Staphylococcus aureus ATCC 6538 P FDA 209P by serial microdilution method; type: functional
HuTu80 [31] = experiment: Induction of apoptosis in human HuTu80 cells assessed as late apoptotic cells at 5 uM incubated for 48 hrs by annexin V FITC/propidium iodide staining based flow cytometry analysis (reference value: 0.00%); type: functional
Escherichia coli [32] = experiment: Antimicrobial activity against Escherichia coli ATCC 25922 by serial microdilution method; type: functional
Bacillus cereus = experiment: Antimicrobial activity against Bacillus cereus ATCC 10702 NCTC 8035 by serial microdilution method; type: functional
Escherichia coli [33] = experiment: Bactericidal activity against Escherichia coli ATCC 25922 by serial microdilution method; type: functional
MCF7 = experiment: Cytotoxicity against human MCF7 cells assessed as number of viable cells measured after 48 hrs by MTT based colorimetric assay; type: functional, cell-based; conditions: MCF7, 48 h
HuTu80 [34] = experiment: Induction of cell cycle arrest in human HuTu80 cells assessed as accumulation of cell at G1/G0 phase at 5 uM measured after 48 hrs by propidium iodide staining based analysis (reference value: 72%); type: functional

O=c1[nH]cc(F)c(=O)[nH]1 [FLUOROURACIL]
IC50 at 48 h [1]: 62 µM | IC50 (A549): 32.4 µM | IC50 (SK-OV-3): 47.2 µM | IC50 at 48 h [2]: 19 µM | IC50 (M-HeLa): 62 µM | IC50 (PC-3): 10.3 µM | IC50 (PANC-1): 100 µM | IC50 (HuTu80 [3]): 65.2 µM

CCCCC/C=C\C/C=C\CCCCCCCC(=O)OCC(O)COC(=O)CCCC[P+](c1ccccc1)(c1ccccc1)c1ccccc1.[Br-] (configuration not stated)
Activity (HuTu80 [4]): 19.59% | IC50 at 48 h [1]: 56.6 µM | Activity (HuTu80 [5]): 38.1% | Ratio IC50 (Homo sapiens [6]): 1.3 | viability at 10 µM (HuTu80 [7]): 56.2% | IC50 (HepG2): 76 µM | viability at 5 µM (HuTu80 [8]): 72.2% | Activity (HuTu80 [9]): 5.7% | Activity (HuTu80 [10]): 5.67% | IC50 (A549): 62.5 µM | Activity (HuTu80 [11]): 18.56% | MIC (Staphylococcus aureus [12]): 5 µM | Ratio IC50 (Homo sapiens [13]): 1.7 | IC50 (T98G): 98 µM | IC50 (SK-OV-3): 39.4 µM | Activity (HuTu80 [14]): 11% | Ratio IC50 (Homo sapiens [15]): 6.6 | IC50 at 48 h [2]: 63 µM | Flu intensity (HuTu80 [16]): 1700 | Activity (HuTu80 [17]): 9.3% | Activity (HuTu80 [18]): 10.7% | MIC (Enterococcus faecalis [19]): 20 µM | IC50 (M-HeLa): 55.6 µM | IC50 (PC-3): 63.9 µM | Ratio IC50 (Homo sapiens [20]): 1.6 | Activity (HuTu80 [21]): 82% | Activity (HuTu80 [22]): 73.9% | IC50 (DU-145): 49.1 µM | Activity (HuTu80 [23]): 61.9% | Activity (HuTu80 [24]): 3.99% | Activity (HuTu80 [25]): 26.1% | Flu intensity (HuTu80 [26]): 1000 | MBC (Enterococcus faecalis [27]): 80 µM | Activity (HuTu80 [28]): 5.4% | Ratio IC50 (Homo sapiens [29]): 1.1 | MBC (Staphylococcus aureus [30]): 5 µM | Activity (HuTu80 [31]): 13.1% | IC50 (PANC-1): 59 µM | MIC (Escherichia coli [32]): 20 µM | MIC (Bacillus cereus): 20 µM | MBC (Escherichia coli [33]): 80 µM | IC50 (MCF7): 37.7 µM | Activity (HuTu80 [34]): 81% | IC50 (HuTu80 [3]): 9.5 µM
